According to US9422302B2 (priority 2013, dated 2016):

What was measured:
δ receptor = δ receptor (Rattus norvegicus, UniProt P33533); details: cited from earlier work
Male, Swiss-Webster mice [1] = test: Hot plate antinociceptive testing (acute, antagonist and tolerance paradigms); assay type: in vivo; details: for Antinociceptive tolerance development vs. Day 1, hot plate: 15 mg/kg s.c. twice daily for five days, latencies 30 min after administration; for ED50: Mus musculus, sc; for Effect of antagonist pretreatment on UMB 425 antinociception, hot plate: naloxone 1 mg/kg i.p. −30 min or nor-BNI 30 mg/kg i.p. −24 h before UMB 425 15 mg/kg s.c., 30 min
Male, Swiss-Webster mice [2] = test: Tail-flick antinociceptive testing (acute, antagonist and tolerance paradigms); assay type: in vivo; details: for Antinociceptive tolerance development vs. Day 1, tail-flick: 15 mg/kg s.c. twice daily for five days, latencies 30 min after administration; for ED50: Mus musculus, sc; for Effect of antagonist pretreatment on UMB 425 antinociception, tail-flick: naloxone 1 mg/kg i.p. −30 min or nor-BNI 30 mg/kg i.p. −24 h before UMB 425 15 mg/kg s.c., 30 min
human δ opioid receptor [3] = target: T1, human δ opioid receptor (Homo sapiens, UniProt P41143); details: ref (32); cited from earlier work
human μ opioid receptor [4] = target: T2, human μ opioid receptor (Homo sapiens, UniProt P35372); test: biochemical; assay type: binding
T2 construct: expressed in transfected cells; host or cells: CHO cells (membranes)

human κ opioid receptor [5] = target: T3, human κ opioid receptor (Homo sapiens, UniProt P41145); test: biochemical; assay type: binding
T3 construct: expressed in transfected cells; host or cells: CHO cells (membranes)

human μ opioid receptor [6] = target: T2, human μ opioid receptor; test: biochemical
human κ opioid receptor [7] = target: T3, human κ opioid receptor; test: [35S]GTPγS functional assay, hKOR-CHO membranes; assay type: biochemical; details: CHO cell membranes, n/e=no effect
human δ opioid receptor [8] = target: T1, human δ opioid receptor; test: Opioid receptor binding, [3H]DPDPE competition in hDOR-CHO membranes; design: expressed in transfected cells; host or cells: CHO cells (membranes)
human δ opioid receptor [9] = target: T1, human δ opioid receptor; test: [35S]GTPγS functional assay, hDOR-CHO membranes (agonism; antagonism of DPDPE, Schild plot); assay type: biochemical; design: expressed in transfected cells; host or cells: CHO cells (membranes)
[10] = 0.5 h, read-out: ED50 Hot Plate, acute treatment paradigm
[11] = read-out: ED50 Hot Plate, Tolerance
[12] = 0.5 h, read-out: ED50 Tail-Flick, acute treatment paradigm
[13] = read-out: ED50 Tail-Flick, Tolerance
[14] = acute vs. tolerance treatment paradigms

T1 sequence (P41143 whole entry): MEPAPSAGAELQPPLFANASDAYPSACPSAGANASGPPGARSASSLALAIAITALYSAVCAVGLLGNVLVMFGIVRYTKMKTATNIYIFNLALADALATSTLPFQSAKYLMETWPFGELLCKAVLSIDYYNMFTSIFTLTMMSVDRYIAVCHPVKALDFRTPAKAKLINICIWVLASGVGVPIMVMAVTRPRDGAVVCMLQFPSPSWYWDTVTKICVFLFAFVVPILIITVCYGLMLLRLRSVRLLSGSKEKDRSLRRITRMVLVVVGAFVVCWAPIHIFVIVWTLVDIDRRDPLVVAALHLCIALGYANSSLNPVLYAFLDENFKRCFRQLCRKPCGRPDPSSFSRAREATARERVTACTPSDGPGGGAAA
T3 sequence (P41145 whole entry): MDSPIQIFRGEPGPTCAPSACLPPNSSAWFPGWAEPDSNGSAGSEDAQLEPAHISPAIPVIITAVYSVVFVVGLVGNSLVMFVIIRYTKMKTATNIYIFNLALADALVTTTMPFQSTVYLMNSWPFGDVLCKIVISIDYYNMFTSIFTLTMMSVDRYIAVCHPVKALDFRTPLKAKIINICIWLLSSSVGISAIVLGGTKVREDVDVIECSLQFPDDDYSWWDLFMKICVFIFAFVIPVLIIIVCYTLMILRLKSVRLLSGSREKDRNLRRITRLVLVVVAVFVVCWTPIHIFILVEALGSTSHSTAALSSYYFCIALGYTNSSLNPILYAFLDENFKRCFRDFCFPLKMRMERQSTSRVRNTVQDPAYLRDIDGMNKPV
Sequence of δ receptor (P33533 whole entry): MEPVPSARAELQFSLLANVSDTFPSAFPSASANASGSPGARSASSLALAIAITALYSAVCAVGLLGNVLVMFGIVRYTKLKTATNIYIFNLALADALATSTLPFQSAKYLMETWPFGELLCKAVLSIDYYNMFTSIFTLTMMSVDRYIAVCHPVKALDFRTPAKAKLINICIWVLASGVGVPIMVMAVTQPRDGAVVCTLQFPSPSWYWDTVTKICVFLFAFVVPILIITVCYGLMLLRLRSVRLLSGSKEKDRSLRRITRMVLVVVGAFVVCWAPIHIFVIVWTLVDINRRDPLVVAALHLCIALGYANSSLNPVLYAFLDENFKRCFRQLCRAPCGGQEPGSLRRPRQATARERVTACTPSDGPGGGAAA
T2 sequence (P35372 whole entry): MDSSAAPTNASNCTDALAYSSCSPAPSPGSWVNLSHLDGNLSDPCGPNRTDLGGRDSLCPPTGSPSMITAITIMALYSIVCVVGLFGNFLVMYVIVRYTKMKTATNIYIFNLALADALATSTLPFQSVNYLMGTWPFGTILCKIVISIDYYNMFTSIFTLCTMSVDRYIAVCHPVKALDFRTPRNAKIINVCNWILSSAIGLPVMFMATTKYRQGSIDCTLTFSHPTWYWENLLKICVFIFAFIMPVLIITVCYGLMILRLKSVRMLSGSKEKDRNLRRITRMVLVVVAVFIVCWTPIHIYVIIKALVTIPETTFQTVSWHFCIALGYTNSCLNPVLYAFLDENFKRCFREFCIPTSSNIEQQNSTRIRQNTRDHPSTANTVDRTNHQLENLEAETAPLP

SMILES: O=C1/C(=C/c2ccccc2)C[C@@]2(O)[C@H]3Cc4ccc(O)c5c4[C@@]2(CCN3CC2CC2)[C@H]1O5 [(E)-BNTX, (E)-benzylidenenaltrexone]
- Relative % Emax Experimental (δ receptor): 0.00

SMILES: CN1CC[C@]23c4c5ccc(O)c4O[C@H]2[C@@H](O)C=C[C@H]3[C@H]1C5 [Morphine, reference compound]
- Antinociceptive tolerance development vs. Day 1, hot plate (Male, Swiss-Webster mice [1]): significantly decreased antinociceptive activity on Day 4 and 5
- ED50 (Male, Swiss-Webster mice [1]; [10]): 2.73 mg/kg
- ED50 (Male, Swiss-Webster mice [1]; [11]): 21.3 mg/kg
- Antinociceptive tolerance development vs. Day 1, tail-flick (Male, Swiss-Webster mice [2]): significantly decreased antinociceptive activity on Day 4 and 5
- ED50 (Male, Swiss-Webster mice [2]; [12]): 6.85 mg/kg
- ED50 (Male, Swiss-Webster mice [2]; [13]): 44.1 mg/kg

SMILES: Oc1ccc2c3c1O[C@H]1c4[nH]c5ccccc5c4C[C@@]4(O)[C@@H](C2)N(CC2CC2)CC[C@]314 [Naltrindole]
- Relative % Emax Experimental (δ receptor): 0.00
- pA2 δ (literature) (human δ opioid receptor [3]): 10.92

SMILES: CN1CC[C@]23c4c5ccc(O)c4O[C@H]2c2[nH]c4ccccc4c2C[C@@]3(O)[C@H]1C5 [Oxymorphindole]
- Relative % Emax Experimental (δ receptor): 0.12

SMILES: CN1CC[C@]23c4c5ccc(O)c4O[C@H]2C(=O)C2(Cc4ccccc4C2)C[C@@]3(O)[C@H]1C5 [SIOM, 7-spiroindanyloxymorphone]
- Relative % Emax Experimental (δ receptor): 0.18

SMILES: CN1CCC23c4c5ccc(O)c4OC2(CO)C(=O)CCC3(O)C1C5 (stereo not drawn) [UMB 425, 4a,9-dihydroxy-7a-(hydroxymethyl)-3-methyl-2,3,4,4a,5,6-hexahydro-1H-4,12-methanobenzofuro[3,2-e]isoquinolin-7(7aH)-one]
- Ki (human μ opioid receptor [4]): 3.2 ± 0.14 nM
- Ki (human κ opioid receptor [5]): 212 ± 21 nM
- κ/μ binding affinity ratio (human κ opioid receptor [5]): 66
- % Emax μ (human μ opioid receptor [6]): 73±7.3%
- EC50 (human μ opioid receptor [6]): 35 ± 3.7 nM
- Emax (human μ opioid receptor [6]; read-out: % Emax ± S.E.M. μ): 73 ± 7.3%
- EC50 ± S.E.M. κ (agonist activity) (human κ opioid receptor [7]): no significant agonist activity and n/e
- Antinociceptive tolerance development vs. Day 1, hot plate (Male, Swiss-Webster mice [1]): significantly decreased antinociceptive activity on Day 4 and 5
- Antinociceptive activity compared with morphine in tolerance paradigm, hot plate (Male, Swiss-Webster mice [1]; Day 4 and 5, 15 mg/kg s.c. twice daily): statistically greater antinociceptive activity than morphine
- ED50 (Male, Swiss-Webster mice [1]; [10]): 4.3 mg/kg
- ED50 (Male, Swiss-Webster mice [1]; [11]): 13 mg/kg
- Shift in ED50, Hot Plate (Male, Swiss-Webster mice [1]; [14]): 3.0 fold
- Reduction in ED50 shift compared to morphine, hot plate (Male, Swiss-Webster mice [1]; tolerance paradigm): 2.6 fold
- Antinociceptive tolerance development vs. Day 1, tail-flick (Male, Swiss-Webster mice [2]): n.s.
- Antinociceptive activity compared with morphine in tolerance paradigm, tail-flick (Male, Swiss-Webster mice [2]; Day 5, 15 mg/kg s.c. twice daily): statistically greater antinociceptive activity than morphine
- ED50 (Male, Swiss-Webster mice [2]; [12]): 8.83 mg/kg
- ED50 (Male, Swiss-Webster mice [2]; [13]): 11.6 mg/kg
- Shift in ED50, Tail-Flick (Male, Swiss-Webster mice [2]; [14]): 1.3 fold
- Reduction in ED50 shift compared to morphine, tail-flick (Male, Swiss-Webster mice [2]; tolerance paradigm): 4.9 fold
- Ki (human δ opioid receptor [8]): 208 ± 18 nM
- δ/μ binding affinity ratio (human δ opioid receptor [8]; ratio of Ki values): 65
- Kb (human δ opioid receptor [9]): 759 nM
- pA2 δ (human δ opioid receptor [9]; Schild plot, DPDPE dose-response curves with 200 nM, 600 nM, 2 μM UMB 425): 6.12
- EC50 ± S.E.M. δ (agonist activity) (human δ opioid receptor [9]; [35S]GTPγS, CHO cell membranes, n/e=no effect): no significant agonist activity and n/e

SMILES: C=CCN1CC[C@]23c4c5ccc(O)c4O[C@H]2C(=O)CC[C@@]3(O)[C@H]1C5 [naloxone, reference compound]
- Effect of antagonist pretreatment on UMB 425 antinociception, hot plate (Male, Swiss-Webster mice [1]): significantly attenuated UMB 425-mediated antinociception
- Effect of antagonist pretreatment on UMB 425 antinociception, tail-flick (Male, Swiss-Webster mice [2]): significantly attenuated UMB 425-mediated antinociception

SMILES: Oc1ccc2c3c1O[C@H]1c4[nH]c5c(c4C[C@@]4(O)[C@@H](C2)N(CC2CC2)CC[C@]314)C[C@@]1(O)[C@H]2Cc3ccc(O)c4c3[C@@]1(CCN2CC1CC1)[C@H]5O4 [nor-BNI, norbinaltorphimine, reference compound]
- Effect of antagonist pretreatment on UMB 425 antinociception, hot plate (Male, Swiss-Webster mice [1]): failed to significantly attenuate UMB 425-mediated antinociception
- Effect of antagonist pretreatment on UMB 425 antinociception, tail-flick (Male, Swiss-Webster mice [2]): failed to significantly attenuate UMB 425-mediated antinociception
